Source: ChEMBL document CHEMBL4334471, “Discovery of 1,8-disubstituted-[1,2,3]triazolo[4,5-c]quinoline derivatives as a new class of Hippo signaling pathway inhibitors” (Bioorg Med Chem Lett, 2019)

Columns and labels:
[1] = target: Activin receptor type-1 (Homo sapiens) (UniProt Q04771); assay: Inhibition of human ALK2 (147 to end residues) assessed as residual activity at 10 uM using casein as substrate incubated for 40 mins in presence of [gamma-33ATP] by scintillation counting based radiometry assay relative to control
[2] = organism: Homo sapiens; assay: Inhibition of recombinant human BRSK2 S251I mutant (2 to end residues) assessed as residual activity at 10 uM using KKLNRTLSFAEPG substrate incubated for 40 mins in presence of [gamma-33ATP] by scintillation counting based radiometry assay relative to control
[3] = target: Serine/threonine-protein kinase B-raf (Homo sapiens) (UniProt P15056); assay: Inhibition of recombinant full length human B-Raf (416 to end residues) assessed as residual activity at 10 uM using myelin basic protein substrate incubated for 40 mins in presence of [gamma-33ATP] by scintillation counting based radiometry assay relative to control
[4] = target: Calcium/calmodulin-dependent protein kinase type 1 (Homo sapiens) (UniProt Q14012); assay: Inhibition of recombinant human CaMKIalpha (2 to end residues) assessed as residual activity at 10 uM using […] incubated for 40 mins in presence of [gamma-33ATP] by scintillation counting based radiometry assay relative to control
Chain of Calcium/calmodulin-dependent protein kinase type 1 (Homo sapiens) (Q14012 whole entry, looked up): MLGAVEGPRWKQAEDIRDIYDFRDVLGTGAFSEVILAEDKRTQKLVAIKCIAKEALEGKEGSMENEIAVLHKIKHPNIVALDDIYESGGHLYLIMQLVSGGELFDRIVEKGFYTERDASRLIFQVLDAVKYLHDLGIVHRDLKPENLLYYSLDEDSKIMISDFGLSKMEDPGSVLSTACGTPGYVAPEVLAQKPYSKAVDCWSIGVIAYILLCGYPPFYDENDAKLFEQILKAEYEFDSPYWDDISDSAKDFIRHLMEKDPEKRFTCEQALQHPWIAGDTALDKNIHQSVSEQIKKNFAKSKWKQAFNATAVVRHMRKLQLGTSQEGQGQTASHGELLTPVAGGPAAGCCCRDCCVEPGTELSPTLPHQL

[5] = target: CDK17/Cyclin-Y (Homo sapiens) (UniProt Q00537+Q8ND76); assay: Inhibition of recombinant full length human CDK17/cyclinY assessed as residual activity at 10 uM using PKSPKARKKL as substrate incubated for 40 mins in presence of [gamma-33ATP] by scintillation counting based radiometry assay relative to control; type: protein-complex assay
[6] = target: Serine/threonine-protein kinase Chk1 (Homo sapiens) (UniProt O14757); assay: Inhibition of recombinant full length human CHK1 assessed as residual activity at 10 uM using KKKVSRSGLYRSPSMPENLNRPR as substrate incubated for 40 mins in presence of [gamma-33ATP] by scintillation counting based radiometry assay relative to control
[7] = tested on: Serine/threonine-protein kinase Chk2 (Homo sapiens), O96017 [I157T]; assay: Inhibition of recombinant human CHK2 I157T mutant (5 to end residues) assessed as residual activity at 10 uM using KKKVSRSGLYRSPSMPENLNRPR as substrate incubated for 40 mins in presence of [gamma-33ATP] by scintillation counting based radiometry assay relative to control
Chain of Serine/threonine-protein kinase Chk2 (Homo sapiens), O96017 [I157T] (O96017 whole entry I157T, canonical isoform): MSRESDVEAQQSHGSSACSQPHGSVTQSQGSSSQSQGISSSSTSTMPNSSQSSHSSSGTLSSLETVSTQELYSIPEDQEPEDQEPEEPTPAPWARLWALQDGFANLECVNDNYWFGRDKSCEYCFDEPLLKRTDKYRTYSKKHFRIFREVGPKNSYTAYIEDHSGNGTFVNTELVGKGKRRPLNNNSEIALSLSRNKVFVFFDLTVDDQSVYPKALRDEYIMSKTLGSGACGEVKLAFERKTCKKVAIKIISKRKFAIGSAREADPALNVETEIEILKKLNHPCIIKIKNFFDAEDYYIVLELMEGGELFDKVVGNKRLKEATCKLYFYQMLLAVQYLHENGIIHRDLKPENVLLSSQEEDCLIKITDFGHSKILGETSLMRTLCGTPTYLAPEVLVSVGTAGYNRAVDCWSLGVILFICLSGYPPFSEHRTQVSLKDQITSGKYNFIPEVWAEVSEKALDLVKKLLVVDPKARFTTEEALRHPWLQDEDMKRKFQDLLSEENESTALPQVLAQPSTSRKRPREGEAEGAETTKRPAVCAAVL

[8] = target: Casein kinase I isoform gamma-2 (Homo sapiens) (UniProt P78368); assay: Inhibition of recombinant human CK1gamma2 (18 to end residues) assessed as residual activity at 10 uM using KRRRALS(p)VASLPGL as substrate incubated for 40 mins in presence of [gamma-33ATP] by scintillation counting based radiometry assay relative to control
Chain of Casein kinase I isoform gamma-2 (Homo sapiens) (P78368 whole entry, looked up, the tested form may be a part, canonical isoform): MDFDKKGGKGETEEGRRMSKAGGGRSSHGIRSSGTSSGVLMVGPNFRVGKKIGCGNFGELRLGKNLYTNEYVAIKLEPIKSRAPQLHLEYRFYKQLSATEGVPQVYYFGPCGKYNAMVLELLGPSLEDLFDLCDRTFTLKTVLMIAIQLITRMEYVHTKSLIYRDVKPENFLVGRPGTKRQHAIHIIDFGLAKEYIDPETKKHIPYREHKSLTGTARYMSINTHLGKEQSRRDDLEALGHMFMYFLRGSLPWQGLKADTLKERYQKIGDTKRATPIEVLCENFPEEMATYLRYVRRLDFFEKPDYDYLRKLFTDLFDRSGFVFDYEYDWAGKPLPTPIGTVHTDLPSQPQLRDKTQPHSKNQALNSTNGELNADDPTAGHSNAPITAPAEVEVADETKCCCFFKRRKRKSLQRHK

[9] = target: Casein kinase I isoform delta (Homo sapiens) (UniProt P48730); assay: Inhibition of recombinant human CK1delta (1 to 294 residues) assessed as residual activity at 10 uM using KRRRALS(p)VASLPGL as substrate incubated for 40 mins in presence of [gamma-33ATP] by scintillation counting based radiometry assay relative to control
[10] = organism: Homo sapiens; assay: Inhibition of recombinant human EphB2 A848S/K918E mutant (560 to end residues) assessed as residual activity at 10 uM using KTFCGTPEYLAPEVRREPRILSEEEQEMFRDFDYIADWC as substrate at 40 mins in presence of [gamma-33ATP] by scintillation counting based radiometry assay relative to control
[11] = tested on: eIF-2-alpha kinase GCN2 (Homo sapiens), Q9P2K8 [E556G]; assay: Inhibition of recombinant full length human GCN2 E556G mutant assessed as residual activity at 10 uM using RSRSRSRSRSRSR as substrate at 40 mins in presence of [gamma-33ATP] by scintillation counting based radiometry assay relative to control
Chain of eIF-2-alpha kinase GCN2 (Homo sapiens), Q9P2K8 [E556G] (Q9P2K8 whole entry E556G): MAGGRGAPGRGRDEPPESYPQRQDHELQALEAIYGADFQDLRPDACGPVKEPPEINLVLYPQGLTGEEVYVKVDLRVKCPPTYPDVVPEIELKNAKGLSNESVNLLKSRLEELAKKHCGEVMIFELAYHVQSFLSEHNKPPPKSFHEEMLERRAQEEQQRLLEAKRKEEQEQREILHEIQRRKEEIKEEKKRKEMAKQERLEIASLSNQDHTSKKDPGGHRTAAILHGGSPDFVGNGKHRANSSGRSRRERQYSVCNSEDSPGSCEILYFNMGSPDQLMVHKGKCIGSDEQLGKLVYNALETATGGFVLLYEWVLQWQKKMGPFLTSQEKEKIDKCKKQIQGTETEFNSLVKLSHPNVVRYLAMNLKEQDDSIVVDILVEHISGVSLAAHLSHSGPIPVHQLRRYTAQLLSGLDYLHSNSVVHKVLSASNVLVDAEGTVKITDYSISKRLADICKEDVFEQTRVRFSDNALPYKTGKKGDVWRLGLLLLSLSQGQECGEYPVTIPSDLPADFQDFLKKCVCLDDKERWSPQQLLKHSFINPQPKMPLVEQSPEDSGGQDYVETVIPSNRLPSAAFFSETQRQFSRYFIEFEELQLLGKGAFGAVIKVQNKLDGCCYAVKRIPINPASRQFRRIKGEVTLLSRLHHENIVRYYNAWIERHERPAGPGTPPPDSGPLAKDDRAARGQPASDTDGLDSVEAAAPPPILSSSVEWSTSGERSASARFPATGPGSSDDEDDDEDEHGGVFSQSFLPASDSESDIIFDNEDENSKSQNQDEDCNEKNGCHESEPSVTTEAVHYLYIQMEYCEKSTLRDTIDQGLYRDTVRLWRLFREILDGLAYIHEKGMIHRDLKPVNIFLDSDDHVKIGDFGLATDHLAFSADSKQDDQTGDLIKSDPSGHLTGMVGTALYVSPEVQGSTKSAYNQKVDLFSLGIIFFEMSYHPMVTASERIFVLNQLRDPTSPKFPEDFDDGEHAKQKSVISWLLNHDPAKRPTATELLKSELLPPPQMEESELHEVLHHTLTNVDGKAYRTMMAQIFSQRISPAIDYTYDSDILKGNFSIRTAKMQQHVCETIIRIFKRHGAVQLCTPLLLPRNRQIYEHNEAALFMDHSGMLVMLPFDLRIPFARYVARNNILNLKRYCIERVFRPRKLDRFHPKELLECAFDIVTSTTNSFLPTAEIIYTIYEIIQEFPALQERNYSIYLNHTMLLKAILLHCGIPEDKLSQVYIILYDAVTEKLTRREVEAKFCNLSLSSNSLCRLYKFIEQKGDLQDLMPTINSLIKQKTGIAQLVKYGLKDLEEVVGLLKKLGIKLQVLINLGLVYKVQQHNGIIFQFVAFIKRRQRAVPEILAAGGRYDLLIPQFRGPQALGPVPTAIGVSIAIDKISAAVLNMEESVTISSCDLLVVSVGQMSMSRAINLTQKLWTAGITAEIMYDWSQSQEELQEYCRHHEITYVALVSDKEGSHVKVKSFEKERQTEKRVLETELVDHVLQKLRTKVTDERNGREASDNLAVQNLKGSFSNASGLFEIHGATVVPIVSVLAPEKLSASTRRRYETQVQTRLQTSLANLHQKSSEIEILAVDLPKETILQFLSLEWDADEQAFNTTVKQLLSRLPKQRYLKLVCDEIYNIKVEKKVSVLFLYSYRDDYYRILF

[12] = tested on: Glycogen synthase kinase-3 beta (Homo sapiens), P49841 [UNDEFINED MUTATION]; assay: Inhibition of human GSK-3beta H350L mutant (2 to end residues) assessed as residual activity at 10 uM using phospho GS2 peptide as substrate after 40 mins by [gamma-33ATP] radiometric assay relative to control
[13] = target: Mitogen-activated protein kinase kinase kinase kinase 1 (Homo sapiens) (UniProt Q92918); assay: Inhibition of human HPK1 (1 to 346 residues) assessed as residual activity at 10 uM using myelin basic protein as substrate after 40 mins by [gamma-33ATP] radiometric assay relative to control
Chain of Mitogen-activated protein kinase kinase kinase kinase 1 (Homo sapiens) (Q92918 whole entry, looked up, the tested form may be a part): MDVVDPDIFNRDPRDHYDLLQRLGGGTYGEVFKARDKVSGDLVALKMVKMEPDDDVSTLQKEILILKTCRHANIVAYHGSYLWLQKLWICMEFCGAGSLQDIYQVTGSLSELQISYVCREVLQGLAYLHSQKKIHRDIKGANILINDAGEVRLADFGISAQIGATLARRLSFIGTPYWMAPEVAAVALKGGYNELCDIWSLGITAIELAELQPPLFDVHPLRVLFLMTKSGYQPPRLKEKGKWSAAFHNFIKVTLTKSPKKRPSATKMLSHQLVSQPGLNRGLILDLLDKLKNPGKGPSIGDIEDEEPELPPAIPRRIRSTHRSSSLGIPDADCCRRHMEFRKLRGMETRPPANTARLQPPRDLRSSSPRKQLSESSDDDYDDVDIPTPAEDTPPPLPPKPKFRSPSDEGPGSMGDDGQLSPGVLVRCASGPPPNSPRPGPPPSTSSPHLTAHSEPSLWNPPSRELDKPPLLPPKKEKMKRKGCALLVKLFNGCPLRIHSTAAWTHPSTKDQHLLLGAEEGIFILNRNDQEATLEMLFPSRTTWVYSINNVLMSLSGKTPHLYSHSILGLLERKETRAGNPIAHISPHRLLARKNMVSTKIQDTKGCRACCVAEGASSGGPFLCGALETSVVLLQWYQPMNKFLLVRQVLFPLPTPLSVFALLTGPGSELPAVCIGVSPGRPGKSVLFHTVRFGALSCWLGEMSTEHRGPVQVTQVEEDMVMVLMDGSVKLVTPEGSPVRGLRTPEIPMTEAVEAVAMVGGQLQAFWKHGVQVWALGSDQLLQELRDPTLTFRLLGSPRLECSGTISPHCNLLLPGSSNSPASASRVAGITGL

[14] = target: Serine/threonine-protein kinase 3 (Homo sapiens) (UniProt Q13188); assay: Inhibition of recombinant human MST2 (2 to end residues) assessed as residual activity at 10 uM using myelin basic protein as substrate measured after 40 mins in presence of [gamma33P]ATP by scintillation counting based radiometry assay relative to control
[15] = target: Serine/threonine-protein kinase D3 (Homo sapiens) (UniProt O94806); assay: Inhibition of recombinant full-length human PKD3 assessed as residual activity at 10 uM using KKLNRTLSVA as substrate incubated for 40 mins in presence of [gamma33P]ATP by scintillation counting based radiometry assay relative to control
Chain of Serine/threonine-protein kinase D3 (Homo sapiens) (O94806 whole entry): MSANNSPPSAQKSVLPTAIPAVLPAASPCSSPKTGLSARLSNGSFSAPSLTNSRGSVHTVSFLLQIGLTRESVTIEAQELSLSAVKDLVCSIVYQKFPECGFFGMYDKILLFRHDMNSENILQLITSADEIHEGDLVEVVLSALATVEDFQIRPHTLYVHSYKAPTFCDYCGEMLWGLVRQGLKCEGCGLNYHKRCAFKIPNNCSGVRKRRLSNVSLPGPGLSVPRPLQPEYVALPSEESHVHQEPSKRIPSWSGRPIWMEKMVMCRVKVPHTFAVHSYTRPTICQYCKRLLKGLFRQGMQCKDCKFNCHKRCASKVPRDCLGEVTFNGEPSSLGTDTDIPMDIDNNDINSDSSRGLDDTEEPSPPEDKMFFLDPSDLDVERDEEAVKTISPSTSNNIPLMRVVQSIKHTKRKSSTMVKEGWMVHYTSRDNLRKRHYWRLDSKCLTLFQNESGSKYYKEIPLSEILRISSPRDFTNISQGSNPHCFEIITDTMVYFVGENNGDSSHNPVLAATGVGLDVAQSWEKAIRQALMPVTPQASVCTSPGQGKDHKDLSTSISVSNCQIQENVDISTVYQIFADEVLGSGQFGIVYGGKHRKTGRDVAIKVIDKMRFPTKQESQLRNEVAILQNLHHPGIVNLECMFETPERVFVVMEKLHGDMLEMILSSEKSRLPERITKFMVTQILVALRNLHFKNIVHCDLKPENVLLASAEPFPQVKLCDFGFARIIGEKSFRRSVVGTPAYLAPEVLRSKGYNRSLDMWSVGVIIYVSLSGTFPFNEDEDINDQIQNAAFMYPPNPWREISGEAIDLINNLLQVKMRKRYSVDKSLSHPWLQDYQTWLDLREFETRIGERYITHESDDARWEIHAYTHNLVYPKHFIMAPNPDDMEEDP

[16] = target: Serine/threonine-protein kinase N2 (Homo sapiens) (UniProt Q16513); assay: Inhibition of recombinant human PRK2 (501 to end residues) assessed as residual activity at 10 uM using AKRRRLSSLRA as substrate incubated for 40 mins in presence of [gamma33P]ATP by scintillation counting based radiometry assay relative to control
[17] = target: cAMP-dependent protein kinase catalytic subunit PRKX (Homo sapiens) (UniProt P51817); assay: Inhibition of recombinant human full length PrKX assessed as residual activity at 10 uM using RRRLSFAEPG as substrate incubated for 40 mins in presence of [gamma33P]ATP by scintillation counting based radiometry assay relative to control
Chain of cAMP-dependent protein kinase catalytic subunit PRKX (Homo sapiens) (P51817 whole entry, the tested form may be a part): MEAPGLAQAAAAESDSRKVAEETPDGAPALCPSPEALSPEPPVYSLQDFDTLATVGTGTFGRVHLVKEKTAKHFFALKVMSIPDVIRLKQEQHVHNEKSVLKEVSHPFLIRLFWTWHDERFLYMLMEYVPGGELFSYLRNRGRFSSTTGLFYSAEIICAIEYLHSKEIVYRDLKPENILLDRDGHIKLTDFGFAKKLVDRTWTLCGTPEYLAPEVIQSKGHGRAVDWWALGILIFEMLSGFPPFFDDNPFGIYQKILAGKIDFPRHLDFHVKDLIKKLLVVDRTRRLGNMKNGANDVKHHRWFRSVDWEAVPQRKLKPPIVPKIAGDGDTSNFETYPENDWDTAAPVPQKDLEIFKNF

[18] = target: Serine/threonine-protein kinase SIK1 (Homo sapiens) (UniProt P57059); assay: Inhibition of recombinant human SIK (1 to 281 residues) assessed as residual activity at 10 uM using AMARAASAAALARRR as substrate incubated for 40 mins in presence of [gamma33P]ATP by scintillation counting based radiometry assay relative to control
[19] = target: Serine/threonine-protein kinase 32B (Homo sapiens) (UniProt Q9NY57); assay: Inhibition of recombinant human full length STK32B assessed as residual activity at 10 uM using casein as substrate incubated for 40 mins in presence of [gamma33P]ATP by scintillation counting based radiometry assay relative to control
[20] = organism: Homo sapiens; assay: Inhibition of activated recombinant human TEC F514V mutant activated (174 to end residues) assessed as residual activity at 10 uM using EFPIYDFLPAKKK as substrate incubated for 40 mins in presence of [gamma33P]ATP by scintillation counting based radiometry assay relative to control
[21] = tested on: Angiopoietin-1 receptor (Homo sapiens), Q02763 [Q939H,Q940H]; assay: Inhibition of recombinant human TIE2 Q939H/Q940H mutant (771 to end residues) assessed as residual activity at 10 uM using EFPIYDFLPAKKK as substrate incubated for 40 mins in presence of [gamma33P]ATP by scintillation counting based radiometry assay relative to control

SMILES: C[C@@H](c1ccccc1)n1nnc2cnc3ccc(-c4cnc5[nH]ccc5c4)cc3c21
- Activity [1]: 88%
- Activity [2]: 77%
- Activity [3]: 73%
- Activity [4]: 28%
- Activity [5]: 85%
- Activity [6]: 140%
- Activity [7]: 59%
- Activity [8]: 73%
- Activity [9]: 23%
- Activity [10]: 83%
- Activity [11]: 93%
- Activity [12]: 81%
- Activity [13]: 84%
- Activity [14]: 57%
- Activity [15]: 53%
- Activity [16]: 89%
- Activity [17]: 97%
- Activity [18]: 8%
- Activity [19]: 88%
- Activity [20]: 35%
- Activity [21]: 50%
